Series [1] in a line: Oral bioavailability / pharmacokinetic study in conscious female S-D rats (plasma scutellarin by UHPLC-MS/MS). The note with it: Sprague-Dawley (S-D), rat, in vivo. Here is the method:
Scutellarin exposure after oral administration of scutellarin and prodrugs was detected in conscious female S-D rats. The rats were fasted for 12 h before the experiment and divided into three groups (n = 5 each group) randomly: scutellarin solution (25 mg/kg), Scu-Me-C5-TG solution (62.5 mg/kg equivalent to Scu), Scu-Me-C5-βMe-TG solution (62.5 mg/kg equivalent to Scu). Blood samples (0.5 mL) were collected from 5 min before administration to up to 24 h post-dosing and centrifuged at 16,000 rpm for 15 min to separate plasma. 100 μL plasma was added into 900 μL methanol and vortexed for 5 min, then centrifuged at 16,000 rpm for 15 min. The supernatant was sampled and used for UHPLC-MS/MS detection. The pharmacokinetic parameters were calculated by DAS 2.0 software.

The conditions of series [2]: source not stated; cited from earlier work.
On the set-up of series [3]: method as in Marina Shamis and Shabat, 2003; Ma et al., 2015. The note with it: Figure 2; ref Marina Shamis and Shabat, 2003; Ma et al., 2015; cited from earlier work.
Details of series [4]: method as in Huang et al., 2005. The note with it: rats; ref Huang et al., 2005; cited from earlier work.
For series [5] the following is noted: cited from earlier work.
On the set-up of series [6]: method as in Lu et al., 2010. The settings on record: humans, 60 mg of scutellarin taken orally; ref Lu et al., 2010; cited from earlier work.
A short description of series [7]: In vivo lymphatic transport in anesthetized mesenteric lymph duct-cannulated rats. Also noted: species or system rat. The settings on record: scutellarin 25 mg/kg intragastric, anesthetized female rats.

Values after ≈ are worked out from the molar mass of the structure shown. Read-outs that look alike come from different tables or passages of the source.

Take `CCCCCCCCCCCCCCCC(=O)OCC(COC(=O)CCCCCCCCCCCCCCC)OC(=O)CCCC(=O)Oc1ccc(-c2cc(=O)c3c(O)c(O)c(O[C@@H]4O[C@H](C(=O)OC)[C@@H](O)[C@H](O)[C@H]4O)cc3o2)cc1` [Scu-Me-C5-TG, 1,3-bis(palmitoyloxy)propan-2-yl (4-(5,6-dihydroxy-4-oxo-7-(((2S,3R,4S,5S,6S)-3,4,5-trihydroxy-6-(methoxycarbonyl)tetrahydro-2H-pyran-2-yl)oxy)-4H-chromen-2-yl)phenyl) glutarate]: in series [1], the F rel is 223.8%; the “maximum plasma concentration (Cmax), fold of the parent drug” value came out at 1.72 fold; the “relative oral bioavailability (Frel), fold of scutellarin” value came out at 2.24 fold.
In the case of `CCCCCCCCCCCCCCCC(=O)OCC(COC(=O)CCCCCCCCCCCCCCC)OC(=O)CC(C)CC(=O)Oc1ccc(-c2cc(=O)c3c(O)c(O)c(O[C@@H]4O[C@H](C(=O)OC)[C@@H](O)[C@H](O)[C@H]4O)cc3o2)cc1` (stereo partly shown) [Scu-Me-C5-βMe-TG], in series [1], the F rel was 245.2%; the “maximum plasma concentration (Cmax), fold of the parent drug” value worked out at 2.11 fold; the “relative oral bioavailability (Frel), fold of scutellarin” value worked out at 2.45 fold.
On to `O=C(O)[C@H]1O[C@@H](Oc2cc3oc(-c4ccc(O)cc4)cc(=O)c3c(O)c2O)[C@H](O)[C@@H](O)[C@@H]1O` [Scutellarin], for which the pKa in series [2] is 3-5. Also, the water solubility in series [3] is 0.02 mg/mL (≈ 43.3 µM). Also, the oral bioavailability in series [4] is recorded as 10.6%. In series [5] (source not stated), the “Log P” value is given as −2.56. For the same compound, in series [6], the “Plasma Cmax” value is recorded as < 5.0 ng/mL. Besides, the “drug in collected mesenteric lymph (mass spectrometry)” value in series [7] is listed as “failed to reach the limit of quantification”.
Consider `CC[C@@]1(O)C(=O)OCc2c1cc1n(c2=O)Cc2cc3c(CN(C)C)c(O)ccc3nc2-1` [Topotecan], for which the “Log P” value in series [5] (ref Wang et al., 2017) was 0.8.

Values taken from article PMC8330727, “Triglyceride-mimetic prodrugs of scutellarin enhance oral bioavailability by promoting intestinal lymphatic transport and avoiding first-pass metabolism” (Drug Delivery, 2021).
